Source: patent US10647700B2, “EZH2 inhibitor and use thereof” (TARAPEUTICS SCIENCE INC., priority 2017, dated 2020)

Key:
[1] = test system: H3K27m3 methylation in Pfeiffer cells; assay: Western Blot of H3K27m3 methylation in Pfeiffer cells; format: cell-based; settings: Homo sapiens, 72 hours treatment, H3K27m3 methylation by Western Blot
Procedure: Meanwhile, the inventors further conducted Western Blot with Pfeiffer cells (purchased from ATCC, USA) for verification. […] Effect of compounds on H3K27m3 methylation in cells was assessed.

EZH2 = EZH2 (Homo sapiens (Human), UniProt Q15910); assay: E-cadherin promoter luciferase reporter gene primary screening in 293T cells; format: cell-based; settings: 293T cells treated for 24 hours, Dual-Glo luciferase; for 1 μM relative fluorescence intensity: compound 1 μM; for 10 μM relative fluorescence intensity: compound 10 μM
From the text: EZH2 suppresses the expression of downstream E-cadherin, and upon EZH2 suppression, expression of E-cadherin will increase. Based on such principle, a reporter gene expression vector was constructed using luciferase.
The amplified fragments after PCR and the PGL4.1 vector (purchased from TAKARA, Japan) were respectively subjected to enzyme digestion with SacI and BglII (purchased from TAKARA, Japan), and then purified with PCR cleanup kit (Axygen PCR cleanup kit). Subsequently, the purified and enzyme-digested PCR products was ligated to the purified and enzyme-digested PGL4.1 vector using ligase solution I (DNA Ligation Kit Ver.2.1, purchased from TAKARA, Japan), and subjected to transformation. Single clones were then screened out and subjected to sequencing, and the obtained positive plasmid containing promoter fragments of Ecadherin was named E-cadherin RE-PGL4.1.
Meanwhile, a Renilla fluorescent vector was constructed using PCDNA4.1 (purchased from Thermofisher, USA) as the template to amplify the fragment of CMV promoter. After enzymatic digestion of the amplified CMV sequences and pGL4.70 vector (purchased from Promega, USA) with KpnI and XhoI (purchased from Promega, USA), purification was conducted with PCR cleanup kit (Axygen PCR cleanup kit). Then the enzyme-digested PCR product was ligated to the enzyme-digested PGL4.70 vector using ligase solution I (DNA Ligation Kit Ver.2.1, purchased from TAKARA, Japan) and the resultant was subjected to transformation. Subsequently single clones were screened and subjected to sequencing, and the obtained plasmid that contained CMV sequence was named as Plasmid Renilla luciferase-pGL4.70. Said plasmid utilized CMV promoter to achieve high expression of Renilla luciferase, which served as the control fluorescence for the primary screening system.
The cells were firstly added with 20 μL Dual-Glo® Luciferase Assay Reagent, then incubated under room temperature for 10 minutes, and read on microplate reader Spectramax i3 (Molecular Devices, USA) to obtain the data of primary screening, which is shown in Table 1.

EZH2, sequence (Q15910 whole entry): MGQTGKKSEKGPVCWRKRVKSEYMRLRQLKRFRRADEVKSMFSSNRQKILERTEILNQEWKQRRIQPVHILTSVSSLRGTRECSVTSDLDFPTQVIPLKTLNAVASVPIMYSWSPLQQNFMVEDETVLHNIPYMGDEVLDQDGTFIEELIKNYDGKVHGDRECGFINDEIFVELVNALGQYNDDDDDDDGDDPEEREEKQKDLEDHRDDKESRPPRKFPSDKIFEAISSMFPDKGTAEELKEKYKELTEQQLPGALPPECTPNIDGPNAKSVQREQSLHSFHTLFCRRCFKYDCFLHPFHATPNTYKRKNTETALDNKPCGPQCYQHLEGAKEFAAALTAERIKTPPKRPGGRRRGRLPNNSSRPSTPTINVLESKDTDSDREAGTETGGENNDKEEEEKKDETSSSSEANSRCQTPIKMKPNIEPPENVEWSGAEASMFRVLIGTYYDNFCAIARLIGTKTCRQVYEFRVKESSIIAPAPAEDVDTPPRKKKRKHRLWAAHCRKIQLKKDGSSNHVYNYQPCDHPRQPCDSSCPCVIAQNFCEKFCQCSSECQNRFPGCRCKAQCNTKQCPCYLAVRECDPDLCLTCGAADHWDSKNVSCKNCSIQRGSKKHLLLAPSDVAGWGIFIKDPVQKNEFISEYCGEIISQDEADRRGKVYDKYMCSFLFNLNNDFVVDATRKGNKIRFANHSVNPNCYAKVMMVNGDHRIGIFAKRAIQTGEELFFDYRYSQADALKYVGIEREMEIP
EZH2, sequence (O75530 whole entry partner): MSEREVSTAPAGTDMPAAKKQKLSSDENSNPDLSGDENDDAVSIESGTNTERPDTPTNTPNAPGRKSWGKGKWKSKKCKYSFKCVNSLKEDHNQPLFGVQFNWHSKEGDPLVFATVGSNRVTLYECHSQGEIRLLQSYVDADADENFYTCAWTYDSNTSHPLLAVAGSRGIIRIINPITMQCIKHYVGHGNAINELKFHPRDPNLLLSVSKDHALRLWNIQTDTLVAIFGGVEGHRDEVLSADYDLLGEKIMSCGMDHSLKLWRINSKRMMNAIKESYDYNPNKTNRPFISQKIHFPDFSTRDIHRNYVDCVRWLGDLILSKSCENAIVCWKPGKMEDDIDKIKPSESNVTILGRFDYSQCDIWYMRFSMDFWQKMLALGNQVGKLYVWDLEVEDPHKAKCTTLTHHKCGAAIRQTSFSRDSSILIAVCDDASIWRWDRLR
EZH2, sequence (Q15022 whole entry partner): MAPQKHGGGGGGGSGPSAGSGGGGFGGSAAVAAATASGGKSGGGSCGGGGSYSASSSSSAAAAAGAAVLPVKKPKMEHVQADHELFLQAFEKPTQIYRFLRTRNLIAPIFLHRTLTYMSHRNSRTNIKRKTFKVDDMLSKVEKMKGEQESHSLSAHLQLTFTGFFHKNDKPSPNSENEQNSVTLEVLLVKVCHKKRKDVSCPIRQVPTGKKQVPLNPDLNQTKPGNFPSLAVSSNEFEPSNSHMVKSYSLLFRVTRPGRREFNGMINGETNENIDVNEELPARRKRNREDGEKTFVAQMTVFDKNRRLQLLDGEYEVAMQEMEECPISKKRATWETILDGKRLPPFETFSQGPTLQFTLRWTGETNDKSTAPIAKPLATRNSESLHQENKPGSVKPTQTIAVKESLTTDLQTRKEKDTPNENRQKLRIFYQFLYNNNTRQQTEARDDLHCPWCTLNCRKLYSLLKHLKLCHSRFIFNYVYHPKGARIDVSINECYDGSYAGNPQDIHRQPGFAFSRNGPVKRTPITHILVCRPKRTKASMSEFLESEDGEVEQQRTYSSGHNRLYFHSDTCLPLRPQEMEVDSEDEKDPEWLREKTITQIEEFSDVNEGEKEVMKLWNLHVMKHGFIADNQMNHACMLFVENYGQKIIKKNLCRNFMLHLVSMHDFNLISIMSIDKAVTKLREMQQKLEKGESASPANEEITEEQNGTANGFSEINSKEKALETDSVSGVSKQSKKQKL
EZH2, sequence (Q09028 whole entry partner): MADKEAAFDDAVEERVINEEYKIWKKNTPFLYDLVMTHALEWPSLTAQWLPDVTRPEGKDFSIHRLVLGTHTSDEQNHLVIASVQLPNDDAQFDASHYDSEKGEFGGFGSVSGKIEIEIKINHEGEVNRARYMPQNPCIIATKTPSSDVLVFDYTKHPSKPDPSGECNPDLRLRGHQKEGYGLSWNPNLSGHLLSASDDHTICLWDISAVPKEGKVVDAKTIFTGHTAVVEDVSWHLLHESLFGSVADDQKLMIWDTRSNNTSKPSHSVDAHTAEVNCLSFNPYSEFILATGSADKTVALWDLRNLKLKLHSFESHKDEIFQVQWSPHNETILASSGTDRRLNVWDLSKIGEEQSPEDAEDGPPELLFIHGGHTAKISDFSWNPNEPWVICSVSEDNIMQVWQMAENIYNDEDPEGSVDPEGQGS

| IC50 [1] [µM] | 1 μM relative fluorescence intensity (EZH2) | 10 μM relative fluorescence intensity (EZH2) | 3 μM relative fluorescence intensity (EZH2; compound 3 μM) | SMILES |
| --- | --- | --- | --- | --- |
| 0.086 |  |  |  | CCN(C(=O)C1CC1)c1cc(-c2ccc(CN3CCOCC3)cc2)cc(C(=O)NCc2c(C)cc(C)[nH]c2=O)c1C [Compound 5, N-((4,6-dimethyl-2-oxo-1,2-dihydropyridin-3-yl)methyl)-5-(N-ethylcyclopropanecarboxamido)-4-methyl-4′-(morpholinomethyl)-[1,1′-diphenyl]-3-carboxamide] |
| 0.126 |  |  |  | CCN(C(=O)C1CCCC1)c1cc(-c2ccc(CN3CCOCC3)cc2)cc(C(=O)NCc2c(C)cc(C)[nH]c2=O)c1C [Compound 16, N-((4,6-dimethyl-2-oxo-1,2-dihydropyridin-3-yl)methyl)-5-(N-ethylcyclopentanecarboxamido)-4-methyl-4′-(morpholinomethyl)-[1,1′-diphenyl]-3-carboxamide] |
| 0.95 |  |  |  | CCN(C(=O)C1CCCC1)c1cc(-c2ccc(N3CCNCC3)nc2)cc(C(=O)NCc2c(C)cc(C)[nH]c2=O)c1C [Compound 32, N-((4,6-dimethyl-2-oxo-1,2-dihydropyridin-3-yl)methyl)-3-(N-ethylcyclopentanecarboxamido)-2-methyl-5-(6-(piperazin-1-yl)pyridin-3-yl)-benzamide] |
| 0.83 |  |  |  | CCCc1cc(C)[nH]c(=O)c1CNC(=O)c1cc(-c2ccnc(N3CCN(CC4CC4)CC3)c2)cc(N(CC)C(=O)C2CCCC2)c1C [Compound 39, 5-(2-(4-(cyclopropylmethyl)piperazin-1-yl)pyridin-4-yl)-3-(N-ethylcyclopentanecarboxamido)-2-methyl-N-((6-methyl-2-oxo-4-propyl-1,2-dihydropyridin-3-yl)methyl)benzamide] |
|  | 179.84 | 234.50 |  | CCN(C(=O)C1CCCC1)c1cc(-c2ccc(OCCCN3CCOCC3)c(F)c2)cc(C(=O)NCc2c(C)cc(C)[nH]c2=O)c1C [Compound 42, N-((4,6-dimethyl-2-oxo-1,2-dihydropyridin-3-yl)methyl)-5-(N-ethylcyclopentanecarboxamido)-3′-fluoro-4-methyl-4′-(3-morpholinopropoxy)-[1,1′-diphenyl]-3-carboxamide] |
|  | 147.30 | 235.05 |  | CCN(C(=O)C1CCCC1)c1cc(-c2ccc(C(C)=O)s2)cc(C(=O)NCc2c(C)cc(C)[nH]c2=O)c1C [Compound 43, 5-(5-acetylthiophene-2-yl)-N-((4,6-dimethyl-2-oxo-1,2-dihydropyridin-3-yl)methyl)-3-(N-ethylcyclopentanecarboxamido)-2-methylbenzamide] |
|  | 181.04 | 217.02 |  | CCN(C(=O)C1CCCC1)c1cc(-c2ccc(OCCCN3CCOCC3)cc2F)cc(C(=O)NCc2c(C)cc(C)[nH]c2=O)c1C [Compound 44, N-((4,6-dimethyl-2-oxo-1,2-dihydropyridin-3-yl)methyl)-5-(N-ethylcyclopentanecarboxamido)-2′-fluoro-4-methyl-4′-(3-morpholinopropoxy)-[1,1′-diphenyl]-3-carboxamide] |
|  | 189.05 | 218.76 |  | CCN(C(=O)C1CCCC1)c1cc(-c2ccc(OCCCN3CCOCC3)cc2C)cc(C(=O)NCc2c(C)cc(C)[nH]c2=O)c1C [Compound 45, N-((4,6-dimethyl-2-oxo-1,2-dihydropyridin-3-yl)methyl)-5-(N-ethylcyclopentanecarboxamido)-2′,4-methyl-4′-(3-morpholinopropoxy)-[1,1′-diphenyl]-3-carboxamide] |
|  | 143 | 171 | 140 | CCN(C(=O)C1CC2C=CC1C2)c1cc(-c2ccc(CN3CCOCC3)cc2)cc(C(=O)NCc2c(C)cc(C)[nH]c2=O)c1C [Compound 60, (1R,4R)—N-(5-(((4,6-dimethyl-2-oxo-1,2-dihydropyridin-3-yl)methyl)carbamoyl-4-methyl-4′-(morpholinomethyl)-[1,1′-diphenyl]-3-yl)-N-ethylbicyclo[2.2.1]hept-5-en-2-carboxamide] |
